Reference: the NIST ThermoML archive (doi:10.1016/j.fluid.2014.09.014)

Experiment: refractive index (other wavelength) (dimensionless); xn = mol fraction of the nth substance listed
Settings: 318.15 K, 101 kPa, Liquid, Standard Abbe refractometry

CC(C)OC(C)C [diisopropyl ether] + CC(C)O
refractive index
Settings	Wavelength=486.1 nm	Wavelength=546.1 nm	Wavelength=587.6 nm	Wavelength=589.3 nm	Wavelength=632.8 nm	Wavelength=644 nm	Wavelength=706.5 nm
x1 = 0.0277	–	1.36758	1.36611	1.36605	1.36479	1.36448	1.36305
x1 = 0.0507	–	1.36752	1.36604	1.36598	1.36472	1.36443	1.363
x1 = 0.051	–	1.36745	1.36598	1.36592	1.36464	1.36435	1.36292
x1 = 0.0717	–	1.36708	1.36563	1.36557	1.36428	1.36398	1.36256
x1 = 0.1528	–	1.36641	1.36495	1.36489	1.36364	1.36335	1.3619
x1 = 0.1553	–	1.36641	1.36495	1.36489	1.36364	1.36335	1.3619
x1 = 0.1938	–	1.36618	1.3647	1.36465	1.36338	1.36309	1.36166
x1 = 0.2029	1.36826	1.36546	1.36403	1.36398	1.36273	1.36243	1.361
x1 = 0.245	1.36775	1.36498	1.36354	1.36348	1.36223	1.36194	1.36053
x1 = 0.297	1.36682	1.36402	1.36259	1.36254	1.36131	1.36101	1.35958
x1 = 0.2973	1.36706	1.36427	1.36283	1.36278	1.36153	1.36123	1.35982
x1 = 0.3068	1.36679	1.36402	1.3626	1.36255	1.36129	1.36098	1.35954
x1 = 0.398	1.36558	1.36283	1.36139	1.36134	1.36008	1.35978	1.35836
x1 = 0.4609	1.36464	1.36184	1.36044	1.36036	1.35912	1.35883	1.3574
x1 = 0.5434	1.36363	1.36086	1.35943	1.35938	1.35814	1.35784	1.35643
x1 = 0.6032	1.36282	1.36011	1.35865	1.3586	1.35735	1.35707	1.35568
x1 = 0.6371	1.36247	1.35971	1.35829	1.35824	1.35701	1.35671	1.35531
x1 = 0.701	1.36166	1.35892	1.35749	1.35743	1.35619	1.35591	1.35452
x1 = 0.754	1.36123	1.35847	1.35706	1.357	1.35577	1.35547	1.35407
x1 = 0.791	1.3608	1.35802	1.35663	1.35658	1.35537	1.35507	1.35364
x1 = 0.8296	1.36034	1.3576	1.35619	1.35614	1.35491	1.35461	1.3532
x1 = 0.8864	1.36022	1.35745	1.35605	1.35599	1.35478	1.35448	1.35309
x1 = 0.8903	1.35967	1.35689	1.35548	1.35543	1.35421	1.35391	1.35251
x1 = 0.9113	1.3594	1.35663	1.35521	1.35515	1.35395	1.35366	1.35225
x1 = 0.9547	1.35891	1.35618	1.35475	1.35469	1.35346	1.35317	1.3518
x1 = 0.973	1.35854	1.3558	1.35439	1.35433	1.35311	1.35281	1.35143
x1 = 0.9771	1.35849	1.35575	1.35433	1.35427	1.35304	1.35276	1.35139
x1 = 1	1.35832	1.35556	1.35416	1.35411	1.3529	1.35259	1.3512
